According to US7572765B2, “Conformationally constrained parathyroid hormone (PTH) analogs” (The General Hospital Corporation, priority 2001, dated 2009):
Square brackets hold non-standard residues; d marks the D form. Ends that are not written are not given here. Peptide text beside a SMILES is read from it. hArg = N=C(N)NCCCC[C@H](N)C(=O)O; Nle = CCCC[C@H](N)C(=O)O; Aib = CC(C)(N)C(=O)O

Key:
[1] = molecular target: T1, human P1R (Homo sapiens, UniProt Q03431); experiment: cAMP stimulation in HKRK-B28 cells; type: cell-based; conditions: for cAMP EMax(obs.): basal 4.0 ± 0.1 pmole/well not subtracted
T1 construct: expressed in transfected cells; host or cells: HKRK-B28 (porcine kidney LLC-PK1, stably transfected)
T1 sequence (Q03431 27-593): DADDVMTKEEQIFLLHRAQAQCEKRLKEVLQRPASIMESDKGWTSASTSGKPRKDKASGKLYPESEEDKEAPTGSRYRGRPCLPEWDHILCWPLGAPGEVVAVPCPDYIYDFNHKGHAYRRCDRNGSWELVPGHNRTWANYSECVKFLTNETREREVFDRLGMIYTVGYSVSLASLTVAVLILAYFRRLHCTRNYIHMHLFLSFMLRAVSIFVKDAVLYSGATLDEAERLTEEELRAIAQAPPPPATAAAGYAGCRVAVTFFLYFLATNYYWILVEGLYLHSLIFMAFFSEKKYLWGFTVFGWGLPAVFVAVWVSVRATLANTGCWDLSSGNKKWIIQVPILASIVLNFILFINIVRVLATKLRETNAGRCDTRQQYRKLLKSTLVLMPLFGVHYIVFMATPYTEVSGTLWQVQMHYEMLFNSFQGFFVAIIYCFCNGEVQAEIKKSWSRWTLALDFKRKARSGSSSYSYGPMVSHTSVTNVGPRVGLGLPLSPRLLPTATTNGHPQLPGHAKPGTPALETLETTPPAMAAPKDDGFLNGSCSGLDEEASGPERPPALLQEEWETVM
Experimental: (§1) Cell Culture. The cell line HKRK-B28 (Takasu, H., et al., J. Bone Miner. Res. 14:11-20 (1999)) was derived from the porcine kidney cell line, LLC-PK1 by stable transfection with plasmid DNA encoding the human P1R and expresses ˜280,000 receptors per cell. These cells, as well as COS-7 cells and SaOS-2-B10 cells, were cultured at […] in T-75 flasks ([…]) in Dulbecco's modified Eagle's medium (DMEM) supplemented with fetal bovine serum (10%), penicillin G (20 units/ml), streptomycin sulfate (20 μg/ml) and amphotericin B (0.05 μg/ml) in a humidified atmosphere containing 5% CO2. Stock solutions of EGTA/trypsin and antibiotics were from GIBCO; fetal bovine serum was from Hyclone Laboratories (Logan, Utah). COS-7 cells sub-cultured in 24-well plates were transfected with plasmid DNA (200 ng per well) encoding the wild-type human P1R or truncated human P1R deleted for residues (24-181) (Shimizu, M., et al., J. Biol. Chem. 275:21836-21843 (2000)) that was purified by cesium chloride/ethidium bromide density gradient centrifugation, and FuGENE 6 transfection reagent (Roche Indianapolis Ind.) according to the manufacturer's recommended procedure. All cells, in 24-well plates, were treated with fresh media and shifted to 33° C. for 12 to 24 h prior to assay.
(§2) cAMP Stimulation. Stimulation of cells with peptide analogs was performed in 24-well plates. Cells were rinsed with 0.5 mL of binding buffer (50 mM Tris-HCI, […], 5 mM KCl, 2 mM CaCl2, 5% heat-inactivated horse serum, 0.5% fetal bovine serum, adjusted to pH 7.5 with HCl) and treated with 200 μL of cAMP assay buffer (Delbecco's modified Eagle's medium containing 2 mM 3-isobutyl-1-methylxanthine, 1 mg/mL bovine serum albumin, 35 mM Hepes-NaOH, pH 7.4) and 100 μL of binding buffer containing varying amounts of peptide analog (final volume=300 μL). The medium was removed after incubation for 30 to 60 minutes at room temperature, and the cells were frozen on dry ice, lysed with 0.5 mL 50 mM HCl, and refrozen ([…]). The cAMP content of the diluted lysate was determined by radioimmunoassay. The EC50 response values were calculated using nonlinear regression (see below).
(§3) Data Calculation. Calculations were performed using Microsoft® Excel. Nonlinear regression analyses of binding and cAMP dose-response data were performed using the four-parameter equation: yp=Min+[(Max−Min)/(1+(IC50/x)^slope)]. The Excel Solver function was utilized for parameter optimization, as described previously (Carter, P. H., et al., Endocrinology 140: 4972-4981 (1999); Bowen, W. P., and Jerman, J. C., Trends in Pharmacol. Sci. 16: 413-417 (1995)). Differences between paired data sets were statistically evaluated using a one-tailed Student's t-test, assuming unequal variances for the two sets.

[2] = molecular target: T1, human P1R; experiment: Competition binding in HKRK-B28 cells
Experimental: as §1
Competition Binding. Binding reactions were performed with HKRK-B28 cells or in COS-7 cells in 24-well plates. The cells were rinsed with 0.5 mL of binding buffer, and then treated successively with 100 μL binding buffer, 100 μL of binding buffer containing various amounts of unlabeled competitor ligand, and 100 μL of binding buffer containing ca. 100,000 cpm of ^125I-[M]PTH(1-21) or ^125I-[Aib^1,3,M]PTH(1-21)} (ca. 26 fmol; final volume=300 μL). Incubations were 4 to 6 h at 4° C., at which time near equilibrium conditions were attained. Cells were then placed on ice, the binding medium was removed, and the monolayer was rinsed three times with 0.5 mL of cold binding buffer. The cells were subsequently lysed with 0.5 mL […] and counted for radioactivity. For each tracer and in each experiment, the non-specific binding was determined as the radioactivity that bound in the presence of the same unlabeled peptide at a concentration of 1 μM, and was ˜1% of total radioactivity added for each tracer. The maximum specific binding (B0) was the total radioactivity bound in the absence of competing ligand, corrected for nonspecific binding, and for each tracer, ranged from 8% to 20% of the total radioactivity added. Nonlinear regression was used to calculate binding IC50 values (see below). Scatchard transformations of homologous competition binding data derived from studies with 26 fmol of ^125I-[Aib^1,3,M]PTH(1-21) were employed for estimations of apparent equilibrium dissociation constant (kDapps) and total number of ligand binding sites (Bmax), assuming a single class of binding sites and equal affinities of the iodinated and non iodinated ligand.
as §3
The P1R-binding properties of these analogs were assayed in competition studies performed in […]. In previous studies, PTH(1-14) binding could not be detected using ^125I-PTH(1-34) and related N-terminally intact and relatively unmodified radioligands (Luck, M. D., et al., Molecular Endocrinology 13:670-680 (1999)). […]

[3] = molecular target: T2, PTH-1 receptor endogenously expressed in SaOS-2 cells (Homo sapiens, UniProt Q03431); experiment: cAMP stimulation in SaOS-2 cells; type: cell-based; conditions: for EMAX(obs.): cAMP, basal 6.4 ± 0.8
T2 construct: endogenously expressed relatively low levels of the PTH-1 receptor; endogenous in cells; host or cells: SaOS-2 (SaOS-2-B10) human osteosarcoma cells
T2 sequence (Q03431 27-593): T1 sequence (Q03431 27-593)
Experimental: as §1, §2, §3
The number of PTH-1 receptors expressed on the surface of the PTH target cells in bone or kidney is uncertain, but it is likely to be considerably lower than that found in HKRK-B28 cells. Therefore, several of the Aib-mounted PTH analogs were evaluated using SaOS-2 cells.

[4] = molecular target: T3, P1R-delNt, truncated human P1R deleted for residues (24-181) (Homo sapiens, UniProt Q03431); experiment: cAMP stimulation in COS-7 cells expressing hP1R-delNt; type: cell-based; conditions: hP1R-delNT
T3 construct: expressed in transfected cells; host or cells: COS-7 (transient, FuGENE 6)
T3 sequence (Q03431 with tags, fused parts or gaps limits assumed): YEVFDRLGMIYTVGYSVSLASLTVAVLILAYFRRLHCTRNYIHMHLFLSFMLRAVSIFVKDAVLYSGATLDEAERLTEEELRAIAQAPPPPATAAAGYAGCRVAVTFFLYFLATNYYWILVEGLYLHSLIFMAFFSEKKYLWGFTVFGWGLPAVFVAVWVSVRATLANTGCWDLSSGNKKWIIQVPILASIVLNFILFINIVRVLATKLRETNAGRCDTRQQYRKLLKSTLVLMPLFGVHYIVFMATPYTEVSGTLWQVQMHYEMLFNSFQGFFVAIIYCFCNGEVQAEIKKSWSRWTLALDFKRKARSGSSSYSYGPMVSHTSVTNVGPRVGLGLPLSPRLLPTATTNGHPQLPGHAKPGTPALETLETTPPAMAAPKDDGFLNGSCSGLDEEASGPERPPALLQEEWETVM
Experimental: as §1, §2, §3
The possibility that the activity-enhancing effects of the Aib substitutions at positions 1 and 3 were mediated through the juxtamembrane (J) region of the receptor was investigated in COS-7 cells transiently transfected with P1R-delNt. P1R-delNt was a truncated P1R that lacked most of the amino-terminal extracellular domain.

[5] = molecular target: T3, P1R-delNt, truncated human P1R deleted for residues (24-181); experiment: Competition binding in COS-7 cells expressing hP1R-delNt; conditions: direct binding of the radioligand
[6] = HKRK-B28 cells, tracer 125I-[M]PTH(1-21)amide, 4 h at 4° C., N.B. = no binding detected at 10 μm peptide

Row | Compound | cAMP EMax(obs.) [1] [pmole/well] | fold improvement of apparent binding affinity relative to [M]PTH(1-14) ([2]; HKRK-B28 cells) | fold more potent in stimulating cAMP formation than [M]PTH(1-14) [3] [fold] | EMAX(obs.) [3] [pmole/well] | EC50 [1] [nM] | other results
1 | CC[C@H](C)[C@H](NC(=O)[C@H](CCC(=O)O)NC(=O)[C@H](C)NC(=O)[C@@H](NC(=O)C(C)(C)N)C(C)C)C(=O)N[C@@H](CCC(N)=O)C(=O)N[C@@H](CC(C)C)C(=O)N[C@@H](CCSC)C(=O)N[C@@H](Cc1c[nH]cn1)C(=O)N[C@@H](CCC(N)=O)C(=O)N[C@@H](CCCCNC(=N)N)C(=O)N[C@@H](C)C(=O)N[C@@H](CCCCN)C(=O)N[C@@H](Cc1c[nH]c2ccccc12)C(N)=O [Aib-1, AibValAlaGluIleGlnLeuMetHisGlnHarAlaLysTrp] (H-[Aib]VAEIQLMHQ[hArg]AKW-NH2) | 273 ± 6 | approximately 10 fold | 15 | 340 ± 30 | – | –
2 | CC[C@H](C)[C@H](NC(=O)[C@H](CCC(=O)O)NC(=O)C(C)(C)NC(=O)[C@@H](NC(=O)[C@H](C)N)C(C)C)C(=O)N[C@@H](CCC(N)=O)C(=O)N[C@@H](CC(C)C)C(=O)N[C@@H](CCSC)C(=O)N[C@@H](Cc1c[nH]cn1)C(=O)N[C@@H](CCC(N)=O)C(=O)N[C@@H](CCCCNC(=N)N)C(=O)N[C@@H](C)C(=O)N[C@@H](CCCCN)C(=O)N[C@@H](Cc1c[nH]c2ccccc12)C(N)=O [Aib-3, AlaValAibGluIleGlnLeuMetHisGlnHarAlaLysTrp] (H-AV[Aib]EIQLMHQ[hArg]AKW-NH2) | 269 ± 7 | approximately 10 fold | 8 | 330 ± 30 | – | –
3 | CC[C@H](C)[C@H](NC(=O)[C@H](CCC(=O)O)NC(=O)C(C)(C)NC(=O)[C@@H](NC(=O)C(C)(C)N)C(C)C)C(=O)N[C@@H](CCC(N)=O)C(=O)N[C@@H](CC(C)C)C(=O)N[C@@H](CCSC)C(=O)N[C@@H](Cc1c[nH]cn1)C(N)=O [[Aib^1,3]PTH(1-9)] (H-[Aib]V[Aib]EIQLMH-NH2) | 10 ± 1 | – | – | – | > 10000 | stimulation of cAMP accumulation (in words) [1]: Little or no stimulation of cAMP accumulation; Binding IC50 [2, 6]: did not bind detachably; Binding IC50 ([2]; HKRK-B28 cells, tracer 125I-[M]PTH(1-21)amide, 4 h at 4° C., N.B. = no binding detected at 10 μm peptide, listed as [Aib^1,3]PTH (1-9)): N.B.
4 | CC[C@H](C)[C@H](NC(=O)[C@H](CCC(=O)O)NC(=O)[C@H](C)NC(=O)[C@@H](NC(=O)[C@H](C)N)C(C)C)C(=O)N[C@@H](CCC(N)=O)C(=O)N[C@@H](CC(C)C)C(=O)N[C@@H](CCSC)C(=O)N[C@@H](Cc1cnc[nH]1)C(=O)N[C@@H](CCC(N)=O)C(=O)N[C@@H](CCCCN=C(N)N)C(=O)N[C@@H](C)C(=O)N[C@@H](CCCCN)C(=O)N[C@@H](Cc1c[nH]c2ccccc12)C(N)=O [[M]PTH(1-14), [Ala^3,12,Gln^10,Har^11,Trp^14]PTH(1-14)amide, reference compound] (H-AVAEIQLMHQ[hArg]AKW-NH2) | – | – | – | – | 100 ± 20 | EC50 [4]: 40 ± 2 nM; IC50 [2, 6]: 1.3e-05 M
5 | ^125I-[M]PTH(1-21): radioiodinated [M]PTH(1-21) tracer radioligand (AVAEIQL[Nle]HQ[hArg]AKWLASVRRY-NH2; also: 125I radiolabel, position not given here) [reference compound] | – | – | – | – | – | binding of radioligand to P1R-delNt (in words) [5]: did not bind detectably; binding of radiolabeled peptide to HKRK-B28 cells (in words) ([2]; direct binding of the radioligand): bound adequately
